Holding throughout (experiment): biochemical
Format in all cases: biochemical

The target in experiment [1] is T1, 382 unique human kinases (Homo sapiens, UniProt Q12866).
T1 construct: purchased Reaction Biology (HotSpot contract assay)
T1 sequence (Q12866 21-999): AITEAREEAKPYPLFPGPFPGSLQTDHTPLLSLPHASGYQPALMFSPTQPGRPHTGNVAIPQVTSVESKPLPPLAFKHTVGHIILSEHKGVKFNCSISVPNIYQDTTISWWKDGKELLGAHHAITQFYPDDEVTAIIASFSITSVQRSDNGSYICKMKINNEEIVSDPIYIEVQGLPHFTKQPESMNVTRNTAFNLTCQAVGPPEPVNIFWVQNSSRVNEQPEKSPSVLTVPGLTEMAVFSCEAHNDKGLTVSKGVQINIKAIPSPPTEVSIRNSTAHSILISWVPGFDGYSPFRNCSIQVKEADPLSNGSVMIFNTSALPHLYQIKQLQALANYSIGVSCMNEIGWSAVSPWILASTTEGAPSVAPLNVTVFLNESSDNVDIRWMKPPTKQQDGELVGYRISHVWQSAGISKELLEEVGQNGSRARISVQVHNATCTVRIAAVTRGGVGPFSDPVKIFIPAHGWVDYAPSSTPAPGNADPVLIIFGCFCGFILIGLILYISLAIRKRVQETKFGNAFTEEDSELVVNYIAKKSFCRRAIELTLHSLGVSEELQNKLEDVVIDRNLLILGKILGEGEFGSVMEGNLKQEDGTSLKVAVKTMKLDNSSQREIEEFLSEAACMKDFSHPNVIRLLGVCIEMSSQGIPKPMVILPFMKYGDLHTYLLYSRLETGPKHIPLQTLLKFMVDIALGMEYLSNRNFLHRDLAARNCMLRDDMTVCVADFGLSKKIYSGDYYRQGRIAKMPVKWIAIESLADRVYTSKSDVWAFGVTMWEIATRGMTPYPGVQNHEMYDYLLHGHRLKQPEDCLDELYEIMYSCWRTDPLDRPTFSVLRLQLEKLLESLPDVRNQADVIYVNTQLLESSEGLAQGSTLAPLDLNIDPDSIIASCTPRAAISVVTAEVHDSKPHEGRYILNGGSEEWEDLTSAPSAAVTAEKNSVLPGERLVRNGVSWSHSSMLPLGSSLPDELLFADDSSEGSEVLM
The note with it: c-MER, 10 uM; for remaining activity at 10 µM: read-out: % Enzyme Activity (relative to DMSO controls).

Experiment [2] addresses T2, 382 unique human kinases (Homo sapiens, UniProt Q96GD4).
T2 construct: purchased Reaction Biology (HotSpot contract assay)
The conditions noted are these: kinase Aurora B, compound 10 uM; for remaining activity at 10 µM: read-out: % Enzyme Activity (relative to DMSO controls).

The target of experiment [3] is T3, 382 unique human kinases (Homo sapiens, UniProt P35968).
T3 construct: purchased Reaction Biology (HotSpot contract assay)
The conditions noted are these: kinase KDR/VEGFR2, compound 10 uM; for remaining activity at 10 µM: read-out: % Enzyme Activity (relative to DMSO controls).

The target in experiment [4] is T4, 382 unique human kinases (Homo sapiens, UniProt P29317).
T4 construct: purchased Reaction Biology (HotSpot contract assay)
The conditions noted are these: EPHA2, [ATP] 50 µM, compound 10 uM; for remaining activity at 10 µM: read-out: % Enzyme Activity (relative to DMSO controls).

The target in experiment [5] is T5, 382 unique human kinases (Homo sapiens, UniProt Q5S007).
T5 construct: purchased Reaction Biology (HotSpot contract assay)
T5 sequence (Q5S007 whole entry): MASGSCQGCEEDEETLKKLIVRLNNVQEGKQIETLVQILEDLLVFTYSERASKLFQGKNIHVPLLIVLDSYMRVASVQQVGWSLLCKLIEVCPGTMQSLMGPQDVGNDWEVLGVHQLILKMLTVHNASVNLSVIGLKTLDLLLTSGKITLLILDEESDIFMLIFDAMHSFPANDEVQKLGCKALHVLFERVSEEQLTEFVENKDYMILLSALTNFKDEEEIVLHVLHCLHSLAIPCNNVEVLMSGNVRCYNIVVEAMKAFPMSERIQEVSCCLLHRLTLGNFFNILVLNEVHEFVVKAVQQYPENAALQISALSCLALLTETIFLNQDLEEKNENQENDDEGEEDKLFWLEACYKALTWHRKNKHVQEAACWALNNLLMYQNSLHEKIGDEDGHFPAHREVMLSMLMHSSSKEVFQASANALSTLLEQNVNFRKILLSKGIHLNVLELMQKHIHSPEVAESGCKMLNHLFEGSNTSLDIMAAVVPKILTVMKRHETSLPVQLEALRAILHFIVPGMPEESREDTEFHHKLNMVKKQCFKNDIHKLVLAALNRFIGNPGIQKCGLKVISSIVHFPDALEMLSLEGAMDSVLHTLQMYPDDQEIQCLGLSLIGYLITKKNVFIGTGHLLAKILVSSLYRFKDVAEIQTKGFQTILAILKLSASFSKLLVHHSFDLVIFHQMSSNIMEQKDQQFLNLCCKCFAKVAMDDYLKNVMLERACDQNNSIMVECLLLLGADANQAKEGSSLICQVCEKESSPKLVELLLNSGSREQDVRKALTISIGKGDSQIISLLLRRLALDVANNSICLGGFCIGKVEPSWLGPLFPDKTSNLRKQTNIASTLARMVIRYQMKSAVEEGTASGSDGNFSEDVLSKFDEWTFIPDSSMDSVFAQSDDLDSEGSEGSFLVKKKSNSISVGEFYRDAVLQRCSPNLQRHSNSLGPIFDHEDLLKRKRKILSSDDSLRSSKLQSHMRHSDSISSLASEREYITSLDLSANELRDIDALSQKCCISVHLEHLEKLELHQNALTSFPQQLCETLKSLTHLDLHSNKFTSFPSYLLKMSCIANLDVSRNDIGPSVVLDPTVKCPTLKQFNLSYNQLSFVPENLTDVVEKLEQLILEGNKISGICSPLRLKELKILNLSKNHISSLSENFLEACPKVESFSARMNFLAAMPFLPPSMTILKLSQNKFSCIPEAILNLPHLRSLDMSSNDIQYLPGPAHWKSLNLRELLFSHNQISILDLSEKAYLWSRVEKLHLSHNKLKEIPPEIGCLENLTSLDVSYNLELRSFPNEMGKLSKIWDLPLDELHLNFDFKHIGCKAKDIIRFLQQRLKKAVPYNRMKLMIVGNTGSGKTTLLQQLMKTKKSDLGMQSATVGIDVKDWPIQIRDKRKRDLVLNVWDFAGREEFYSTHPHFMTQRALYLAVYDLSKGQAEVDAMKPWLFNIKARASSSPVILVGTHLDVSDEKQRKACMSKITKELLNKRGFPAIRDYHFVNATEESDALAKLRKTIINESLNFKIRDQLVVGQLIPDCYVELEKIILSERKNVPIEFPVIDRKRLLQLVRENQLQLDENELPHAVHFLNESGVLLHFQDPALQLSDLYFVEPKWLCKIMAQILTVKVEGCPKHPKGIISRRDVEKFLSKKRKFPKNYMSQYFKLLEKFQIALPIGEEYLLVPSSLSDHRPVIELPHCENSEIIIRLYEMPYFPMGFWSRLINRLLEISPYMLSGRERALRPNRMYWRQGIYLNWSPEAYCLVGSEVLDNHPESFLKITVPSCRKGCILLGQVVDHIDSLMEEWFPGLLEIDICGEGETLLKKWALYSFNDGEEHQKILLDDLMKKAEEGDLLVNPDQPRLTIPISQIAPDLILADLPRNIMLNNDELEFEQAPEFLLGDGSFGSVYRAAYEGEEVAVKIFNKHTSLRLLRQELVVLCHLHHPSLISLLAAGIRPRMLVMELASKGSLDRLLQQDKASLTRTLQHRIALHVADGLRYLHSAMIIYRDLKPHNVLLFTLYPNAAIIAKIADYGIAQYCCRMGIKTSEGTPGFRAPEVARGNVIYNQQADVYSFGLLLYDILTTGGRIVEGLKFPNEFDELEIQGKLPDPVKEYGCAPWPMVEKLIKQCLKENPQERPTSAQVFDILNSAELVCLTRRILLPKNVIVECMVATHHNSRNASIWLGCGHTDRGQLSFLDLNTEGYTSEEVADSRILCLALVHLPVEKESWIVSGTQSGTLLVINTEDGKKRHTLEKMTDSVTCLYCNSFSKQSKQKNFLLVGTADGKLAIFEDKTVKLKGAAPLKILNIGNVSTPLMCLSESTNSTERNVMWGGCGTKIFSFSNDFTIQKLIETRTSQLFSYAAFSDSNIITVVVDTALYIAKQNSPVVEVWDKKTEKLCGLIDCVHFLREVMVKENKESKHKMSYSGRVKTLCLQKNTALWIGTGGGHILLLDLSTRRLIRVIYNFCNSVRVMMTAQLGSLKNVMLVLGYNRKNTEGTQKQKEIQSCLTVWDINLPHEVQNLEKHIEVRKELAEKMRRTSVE
The conditions noted are these: LRRK2, [ATP] 30 µM, compound 10 uM; for remaining activity at 10 µM: read-out: % Enzyme Activity (relative to DMSO controls).

Experiment [6] concerns the target T6, 382 unique human kinases (Homo sapiens, UniProt P46734).
T6 construct: purchased Reaction Biology (HotSpot contract assay)
T6 sequence (P46734 1-347): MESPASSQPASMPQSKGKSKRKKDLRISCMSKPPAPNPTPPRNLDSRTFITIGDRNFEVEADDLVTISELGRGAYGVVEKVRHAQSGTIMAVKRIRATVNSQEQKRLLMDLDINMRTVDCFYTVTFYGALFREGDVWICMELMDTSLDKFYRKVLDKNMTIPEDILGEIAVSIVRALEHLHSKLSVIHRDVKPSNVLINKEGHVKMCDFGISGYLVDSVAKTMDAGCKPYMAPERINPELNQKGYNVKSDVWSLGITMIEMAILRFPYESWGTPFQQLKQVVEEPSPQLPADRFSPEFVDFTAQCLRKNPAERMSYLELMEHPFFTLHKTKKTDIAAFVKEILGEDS
The conditions noted are these: MEK3, 10 uM; for remaining activity at 10 µM: read-out: % Enzyme Activity (relative to DMSO controls).

Experiment [7] addresses T7, 382 unique human kinases (Homo sapiens, UniProt P07332).
T7 construct: purchased Reaction Biology (HotSpot contract assay)
The conditions noted are these: FES/FPS, 10 uM; for remaining activity at 10 µM: read-out: % Enzyme Activity (relative to DMSO controls).

For experiment [8], the target named is T8, 382 unique human kinases (Homo sapiens, UniProt Q16584).
T8 construct: purchased Reaction Biology (HotSpot contract assay)
The conditions noted are these: MLK3/MAP3K11, 10 uM; for remaining activity at 10 µM: read-out: % Enzyme Activity (relative to DMSO controls).

The target in experiment [9] is T9, 382 unique human kinases (Homo sapiens, UniProt Q13153).
T9 construct: purchased Reaction Biology (HotSpot contract assay)
The conditions noted are these: PAK1, 10 uM; for remaining activity at 10 µM: read-out: % Enzyme Activity (relative to DMSO controls).

For experiment [10], the target named is T10, 382 unique human kinases (Homo sapiens, UniProt O15075).
T10 construct: purchased Reaction Biology (HotSpot contract assay)
T10 sequence (O15075 whole entry): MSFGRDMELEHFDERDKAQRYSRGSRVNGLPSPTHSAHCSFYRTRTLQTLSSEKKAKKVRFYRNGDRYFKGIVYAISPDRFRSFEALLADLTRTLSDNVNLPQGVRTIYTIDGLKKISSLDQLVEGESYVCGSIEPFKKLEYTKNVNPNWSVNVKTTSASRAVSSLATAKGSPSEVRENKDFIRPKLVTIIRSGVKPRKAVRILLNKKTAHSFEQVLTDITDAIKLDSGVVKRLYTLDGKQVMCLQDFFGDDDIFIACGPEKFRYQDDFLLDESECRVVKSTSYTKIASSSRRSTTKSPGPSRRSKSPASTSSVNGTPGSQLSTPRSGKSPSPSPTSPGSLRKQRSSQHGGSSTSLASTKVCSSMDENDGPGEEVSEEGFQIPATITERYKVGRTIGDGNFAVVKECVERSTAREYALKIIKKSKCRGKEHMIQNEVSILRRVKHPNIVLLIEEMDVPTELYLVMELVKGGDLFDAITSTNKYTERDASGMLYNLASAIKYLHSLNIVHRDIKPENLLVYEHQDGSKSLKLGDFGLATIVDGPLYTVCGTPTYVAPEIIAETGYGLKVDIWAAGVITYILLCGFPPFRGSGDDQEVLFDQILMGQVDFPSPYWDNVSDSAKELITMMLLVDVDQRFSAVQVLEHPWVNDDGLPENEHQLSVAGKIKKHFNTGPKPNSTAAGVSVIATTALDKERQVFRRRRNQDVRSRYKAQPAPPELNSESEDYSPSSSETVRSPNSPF
The conditions noted are these: DCAMKL1, 10 uM; for remaining activity at 10 µM: read-out: % Enzyme Activity (relative to DMSO controls).

In experiment [11] the target is T11, 382 unique human kinases (Homo sapiens, UniProt P05771).
T11 construct: purchased Reaction Biology (HotSpot contract assay)
The note with it: PKCb1, 10 uM; for remaining activity at 10 µM: read-out: % Enzyme Activity (relative to DMSO controls).

In experiment [12] the target is T12, 382 unique human kinases (Homo sapiens, UniProt P45983).
T12 construct: purchased Reaction Biology (HotSpot contract assay)
T12 sequence (P45983 whole entry): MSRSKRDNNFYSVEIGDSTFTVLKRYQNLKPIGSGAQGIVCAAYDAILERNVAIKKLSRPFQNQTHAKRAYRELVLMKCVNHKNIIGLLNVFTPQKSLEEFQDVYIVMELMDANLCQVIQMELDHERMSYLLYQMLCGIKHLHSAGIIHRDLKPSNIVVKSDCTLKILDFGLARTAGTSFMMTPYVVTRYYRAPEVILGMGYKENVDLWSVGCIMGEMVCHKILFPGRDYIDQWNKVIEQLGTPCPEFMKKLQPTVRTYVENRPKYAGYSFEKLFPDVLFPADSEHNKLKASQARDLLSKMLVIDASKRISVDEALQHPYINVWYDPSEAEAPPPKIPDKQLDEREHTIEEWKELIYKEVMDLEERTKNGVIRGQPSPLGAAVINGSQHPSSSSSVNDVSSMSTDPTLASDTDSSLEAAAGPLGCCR
The note with it: JNK1, 10 uM; for remaining activity at 10 µM: read-out: % Enzyme Activity (relative to DMSO controls).

T2 sequence (Q96GD4 whole entry): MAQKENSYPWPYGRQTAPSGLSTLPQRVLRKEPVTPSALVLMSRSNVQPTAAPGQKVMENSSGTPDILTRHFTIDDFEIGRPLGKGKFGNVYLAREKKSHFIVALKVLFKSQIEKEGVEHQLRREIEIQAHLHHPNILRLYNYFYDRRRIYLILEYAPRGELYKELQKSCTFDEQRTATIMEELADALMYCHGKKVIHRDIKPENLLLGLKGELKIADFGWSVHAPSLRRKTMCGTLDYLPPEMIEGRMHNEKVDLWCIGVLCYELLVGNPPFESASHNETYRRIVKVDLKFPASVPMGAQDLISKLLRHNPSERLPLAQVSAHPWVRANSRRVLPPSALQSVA
T7 sequence (P07332 whole entry): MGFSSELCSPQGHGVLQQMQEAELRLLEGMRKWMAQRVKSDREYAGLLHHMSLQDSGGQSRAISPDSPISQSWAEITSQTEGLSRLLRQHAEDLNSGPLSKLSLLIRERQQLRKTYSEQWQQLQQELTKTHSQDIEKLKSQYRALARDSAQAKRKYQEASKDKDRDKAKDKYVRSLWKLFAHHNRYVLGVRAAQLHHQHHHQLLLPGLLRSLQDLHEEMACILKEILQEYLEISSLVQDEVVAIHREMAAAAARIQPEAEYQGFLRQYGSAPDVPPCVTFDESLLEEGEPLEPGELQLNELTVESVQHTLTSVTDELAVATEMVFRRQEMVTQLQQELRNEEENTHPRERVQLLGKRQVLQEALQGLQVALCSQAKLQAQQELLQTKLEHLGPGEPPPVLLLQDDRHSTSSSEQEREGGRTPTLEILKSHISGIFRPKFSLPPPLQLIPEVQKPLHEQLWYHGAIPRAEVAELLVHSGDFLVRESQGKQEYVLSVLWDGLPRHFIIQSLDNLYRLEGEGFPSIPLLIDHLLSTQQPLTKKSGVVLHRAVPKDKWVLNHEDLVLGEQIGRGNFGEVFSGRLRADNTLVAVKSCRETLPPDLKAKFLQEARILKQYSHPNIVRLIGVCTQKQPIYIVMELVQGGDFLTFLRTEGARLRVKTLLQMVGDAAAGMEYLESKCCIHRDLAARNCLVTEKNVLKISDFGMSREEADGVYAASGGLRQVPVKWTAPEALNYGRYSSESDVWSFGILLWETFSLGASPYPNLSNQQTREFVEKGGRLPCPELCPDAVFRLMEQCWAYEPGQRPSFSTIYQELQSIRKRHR

`CC(C)c1cc(-c2n[nH]c(=O)n2-c2ccc3c(ccn3C)c2)c(O)cc1O` [Ganetespib (STA9090)]: the remaining activity at 10 µM in experiment [1] is 63.5%; in experiment [2], 83.6%; in [3], 88.7%.
For the compound `CC(C)c1cc(-c2n[nH]c(=O)n2-c2ccc3c(ccn3C)c2)c(O)cc1O` [Ganetespib], the remaining activity at 10 µM is 43.5% in [4]; 45.9% in experiment [5]; 103% in experiment [6]; 98.6% in experiment [7]; 91% in experiment [8]; 97.2% in experiment [9]. Besides, the remaining activity at 10 µM came out at 113% in experiment [10], 109% in experiment [11] and 99.3% in [12].
`CCNC(=O)c1noc(-c2cc(C(C)C)c(O)cc2O)c1-c1ccc(CN2CCOCC2)cc1` [Luminespib (AUY-922)]: the “% Enzyme Activity (relative to DMSO controls)” value in experiment [1] worked out at 93.85%; in experiment [2], 100.09%; in [3] it was 99.89%. Besides, the remaining activity at 10 µM in experiment [1] worked out at 97.7%; in experiment [2], 104%; in experiment [3], 101%.
Take `CCNC(=O)c1noc(-c2cc(C(C)C)c(O)cc2O)c1-c1ccc(CN2CCOCC2)cc1` [Luminespib]: the “% Enzyme Activity (relative to DMSO controls)” value is 92.01% in [4]; 94.05% in experiment [5]; 95.40% in experiment [6]; 99.33% in experiment [7]; 103.89% in [8]; 101.44% in [9]. For the same compound, the “% Enzyme Activity (relative to DMSO controls)” value in [10] is given as 95.95%; in experiment [11] it was 93.07%; in [12], 101.32%. Also, the remaining activity at 10 µM amounted to 92.4% in experiment [4]; 94.8% in experiment [5]; 96.8% in experiment [6]; 99.4% in [7]; 104% in [8]; 102% in experiment [9]. The remaining activity at 10 µM worked out at 96.9% in [10], 93.8% in experiment [11] and 103% in [12].
